According to patent US20260116920A1, “HUMAN TRANSFERRIN RECEPTOR BINDING PEPTIDE” (PEPTIDREAM INC., priority 2021, published 2026):
Starred links: 1 amine or outer side, 2 acyl side, 3 side chain; linkers in the order of their positions; H or OH if unused. Positions of bridges follow the written chain, without caps; N, C: chain ends. Non-standard residues stand in square brackets, D forms with d. Residues, ends and D or L forms follow the SMILES beside them. Groups on a side chain read outwards from the residue. *: point of attachment. Trp(1-CH2COOH) = N[C@@H](Cc1cn(CC(=O)O)c2ccccc12)C(=O)O; Meglumine = CN(C[C@H](O)[C@@H](O)[C@H](O)[C@H](O)CO)*; Phe(3-COOH) = N[C@@H](Cc1cccc(C(=O)O)c1)C(=O)O; NH(CH2CH2O)8Me = COCCOCCOCCOCCOCCOCCOCCOCCN*; NMePhe(3-Cl) = CN[C@@H](Cc1cccc(Cl)c1)C(=O)O; 3Pal(6-NH2) = Nc1ccc(C[C@H](N)C(=O)O)cn1; Lys(N3) = [N-]=[N+]=NCCCC[C@H](N)C(=O)O; NMeY = CN[C@@H](Cc1ccc(O)cc1)C(=O)O; 3Pal = N[C@@H](Cc1cccnc1)C(=O)O; 4Pal = N[C@@H](Cc1ccncc1)C(=O)O; PEG4 = NCCOCCOCCOCCOCCC(=O)O; Carboxymethyl = O=C(O)C*; CO = O=C([*:1])[*:2]

What follows are compounds tested against T1, human transferrin receptor (hTfR) (Homo sapiens, UniProt P02786) (assay: Evaluation of molecular interaction between transferrin receptor (hTfR) and peptide using surface plasmon resonance (SPR)). Details: surface plasmon resonance, binding to hTfR; KD class symbol; read-out: SPR (KD value).
T1 construct: made in house
T1 sequence (P02786 89-760 limits assumed): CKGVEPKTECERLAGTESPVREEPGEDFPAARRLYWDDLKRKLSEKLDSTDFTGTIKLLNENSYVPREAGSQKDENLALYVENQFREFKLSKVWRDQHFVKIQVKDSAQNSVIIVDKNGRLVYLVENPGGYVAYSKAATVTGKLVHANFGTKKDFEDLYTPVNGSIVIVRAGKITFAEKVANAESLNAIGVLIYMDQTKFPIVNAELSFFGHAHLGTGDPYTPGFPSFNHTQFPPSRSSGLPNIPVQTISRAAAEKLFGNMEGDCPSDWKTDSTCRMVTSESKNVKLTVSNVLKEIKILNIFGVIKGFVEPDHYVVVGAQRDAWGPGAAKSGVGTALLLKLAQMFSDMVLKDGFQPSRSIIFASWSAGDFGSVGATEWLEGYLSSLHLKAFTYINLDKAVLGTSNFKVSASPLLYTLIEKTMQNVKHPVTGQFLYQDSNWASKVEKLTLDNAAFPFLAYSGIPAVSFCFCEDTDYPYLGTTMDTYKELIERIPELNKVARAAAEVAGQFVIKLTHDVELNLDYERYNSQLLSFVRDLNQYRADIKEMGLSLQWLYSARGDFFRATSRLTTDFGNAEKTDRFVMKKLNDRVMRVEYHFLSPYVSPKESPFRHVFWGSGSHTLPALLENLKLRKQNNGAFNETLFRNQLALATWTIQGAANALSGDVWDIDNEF
Assay type: binding
Procedure, shortened: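 Steps: NTA chip loaded with NiCl2, activated with EDC/NHS, coated with 0.5 μM hTfR dimer, capped with ethanolamine. Peptides diluted from DMSO stock into running buffer (pH 8.0, 1.0% DMSO) at 5–100 nM and injected in single-cycle mode. Sensorgrams fitted to give KD.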

| Kd [µM] | SMILES |
| --- | --- |
| 0.001 to 0.1 | CC[C@H](C)[C@@H]1NC(=O)[C@H](Cc2cccnc2)NC(=O)[C@H](Cc2ccc(O)cc2)NC(=O)[C@H](CC(N)=O)NC(=O)[C@H](Cc2c[nH]c3ccccc23)NC(=O)[C@H](C(C)C)NC(=O)[C@H](Cc2cccc(Cl)c2)N(C)C(=O)[C@H](C(C)C)NC(=O)[C@H](C)NC(=O)CSC[C@@H](C(=O)NCC(=O)N[C@H](CCCCNC(=O)N(C)C[C@H](O)[C@@H](O)[C@H](O)[C@H](O)CO)C(=O)N[C@H](CCCCNC(=O)N(C)C[C@H](O)[C@@H](O)[C@H](O)[C@H](O)CO)C(=O)N[C@H](CCCCNC(=O)N(C)C[C@H](O)[C@@H](O)[C@H](O)[C@H](O)CO)C(=O)N[C@H](CO)C(=O)N[C@H](CO)C(=O)N[C@@H](CCCCN=[N+]=[N-])C(N)=O)NC(=O)[C@H](Cc2ccc(O)cc2)N(C)C(=O)[C@H](Cc2ccncc2)NC(=O)[C@H](CCCNC(=N)N)NC(=O)[C@H](CCCNC(=N)N)NC(=O)[C@H]([C@@H](C)CC)NC1=O [compound 68] ({CH2CO}-AV[NMePhe(3-Cl)]VWNY[3Pal]IIRR[4Pal][NMeY]CG[dK]([CO-Meglumine])[dK]([CO-Meglumine])[dK]([CO-Meglumine])[dS][dS][Lys(N3)]-NH2; thioether N-15) |
| 0.001 to 0.1 | CC[C@H](C)[C@@H]1NC(=O)[C@H](Cc2cccnc2)NC(=O)[C@H](Cc2ccc(O)cc2)NC(=O)[C@H](CC(N)=O)NC(=O)[C@H](Cc2c[nH]c3ccccc23)NC(=O)[C@H](C(C)C)NC(=O)[C@H](Cc2cccc(Cl)c2)N(C)C(=O)[C@H](C(C)C)NC(=O)[C@H](C)NC(=O)CSC[C@@H](C(=O)NCC(=O)N[C@H](CCC(=O)O)C(=O)N[C@H](CCC(=O)O)C(=O)N[C@H](CCC(=O)O)C(=O)N[C@H](CO)C(=O)N[C@H](CO)C(=O)N[C@@H](CCCCN=[N+]=[N-])C(N)=O)NC(=O)[C@H](Cc2ccc(O)cc2)N(C)C(=O)[C@H](Cc2ccncc2)NC(=O)[C@H](CCCNC(=N)N)NC(=O)[C@H](CCCNC(=N)N)NC(=O)[C@H]([C@@H](C)CC)NC1=O [compound 69] |
| 0.001 to 0.1 | CC[C@H](C)[C@@H]1NC(=O)[C@H](Cc2ccc(OC)cc2)NC(=O)[C@H](Cc2ccc(O)cc2)NC(=O)[C@H](CC(N)=O)NC(=O)[C@H](Cc2cn(CC(=O)O)c3ccccc23)NC(=O)[C@H](C(C)C)NC(=O)[C@H](Cc2cccc(Cl)c2)N(C)C(=O)[C@H](C(C)C)NC(=O)[C@H](C)NC(=O)CSC[C@@H](C(=O)NCCOCCOCCOCCOCCC(N)=O)NC(=O)[C@H](Cc2ccc(O)cc2)N(C)C(=O)[C@H](Cc2ccccc2)NC(=O)[C@H](CCC(=O)NCCOCCOCCOCCOCCOCCOCCOCCOC)NC(=O)[C@H](CCCNC(=N)N)NC(=O)[C@H]([C@@H](C)CC)NC1=O [compound 70] |
| 0.001 to 0.1 | CC[C@H](C)[C@@H]1NC(=O)[C@H](Cc2ccc(OCC(=O)O)cc2)NC(=O)[C@H](Cc2ccc(N)nc2)NC(=O)[C@H](CC(N)=O)NC(=O)[C@H](Cc2cn(CC(=O)O)c3ccccc23)NC(=O)[C@H](C(C)C)NC(=O)[C@H](Cc2cccc(Cl)c2)N(C)C(=O)[C@H](C(C)C)NC(=O)[C@H](C)NC(=O)CSC[C@@H](C(=O)NCCOCCOCCOCCOCCC(N)=O)NC(=O)[C@H](Cc2ccc(O)cc2)N(C)C(=O)[C@H](Cc2ccccc2)NC(=O)[C@H](CCCNC(=N)N)NC(=O)[C@H](CCCNC(=N)N)NC(=O)[C@H]([C@@H](C)CC)NC1=O [compound 71] ({CH2CO}-AV[NMePhe(3-Cl)]V[Trp(1-CH2COOH)]N[3Pal(6-NH2)]Y(Carboxymethyl)IIRRF[NMeY]C[PEG4]-NH2; thioether N-15) |
| 0.001 to 0.1 | CC[C@H](C)[C@@H]1NC(=O)[C@H](Cc2ccc(OC)cc2)NC(=O)[C@H](Cc2ccc(N)nc2)NC(=O)[C@H](CC(N)=O)NC(=O)[C@H](Cc2cn(CC(=O)O)c3ccccc23)NC(=O)[C@H](C(C)C)NC(=O)[C@H](Cc2cccc(Cl)c2)N(C)C(=O)[C@H](C(C)C)NC(=O)[C@H](C)NC(=O)CSC[C@@H](C(=O)NCCOCCOCCOCCOCCC(N)=O)NC(=O)[C@H](Cc2ccc(O)cc2)N(C)C(=O)[C@H](Cc2cccc(C(=O)O)c2)NC(=O)[C@H](CCCNC(=N)N)NC(=O)[C@H](CCCNC(=N)N)NC(=O)[C@H]([C@@H](C)CC)NC1=O [compound 72] ({CH2CO}-AV[NMePhe(3-Cl)]V[Trp(1-CH2COOH)]N[3Pal(6-NH2)]Y(Me)IIRR[Phe(3-COOH)][NMeY]C[PEG4]-NH2; thioether N-15) |
| 0.001 to 0.1 | CC[C@H](C)[C@@H]1NC(=O)[C@H](Cc2cccnc2)NC(=O)[C@H](Cc2ccc(O)cc2)NC(=O)[C@H](CC(N)=O)NC(=O)[C@H](Cc2cn(CC(=O)O)c3ccccc23)NC(=O)[C@H](C(C)C)NC(=O)[C@H](Cc2cccc(Cl)c2)N(C)C(=O)[C@H](C(C)C)NC(=O)[C@H](C)NC(=O)CSC[C@@H](C(=O)NCCOCCOCCOCCOCCC(N)=O)NC(=O)[C@H](Cc2ccc(O)cc2)N(C)C(=O)[C@H](Cc2ccccc2)NC(=O)[C@H](CCC(=O)NCCOCCOCCOCCOCCOCCOCCOCCOC)NC(=O)[C@H](CCCNC(=N)N)NC(=O)[C@H]([C@@H](C)CC)NC1=O [compound 73] ({CH2CO}-AV[NMePhe(3-Cl)]V[Trp(1-CH2COOH)]NY[3Pal]IIRE(NH(CH2CH2O)8Me)F[NMeY]C[PEG4]-NH2; thioether N-15) |
| 0.001 to 0.1 | CC[C@H](C)[C@@H]1NC(=O)[C@H](Cc2cccnc2)NC(=O)[C@H](Cc2ccc(O)cc2)NC(=O)[C@H](CC(N)=O)NC(=O)[C@H](Cc2cn(CC(=O)O)c3ccccc23)NC(=O)[C@H](C(C)C)NC(=O)[C@H](Cc2cccc(Cl)c2)N(C)C(=O)[C@H](C(C)C)NC(=O)[C@H](C)NC(=O)CSC[C@@H](C(=O)NCCOCCOCCOCCOCCC(N)=O)NC(=O)[C@H](Cc2ccc(O)cc2)N(C)C(=O)[C@H](Cc2cccc(C(=O)O)c2)NC(=O)[C@H](CCCNC(=N)N)NC(=O)[C@H](CCCNC(=N)N)NC(=O)[C@H]([C@@H](C)CC)NC1=O [compound 74] ({CH2CO}-AV[NMePhe(3-Cl)]V[Trp(1-CH2COOH)]NY[3Pal]IIRR[Phe(3-COOH)][NMeY]C[PEG4]-NH2; thioether N-15) |
| 0.001 to 0.1 | CC[C@H](C)[C@@H]1NC(=O)[C@H](Cc2ccc(OCC(=O)O)cc2)NC(=O)[C@H](Cc2ccc(O)cc2)NC(=O)[C@H](CC(N)=O)NC(=O)[C@H](Cc2cn(CC(=O)O)c3ccccc23)NC(=O)[C@H](C(C)C)NC(=O)[C@H](Cc2cccc(Cl)c2)N(C)C(=O)[C@H](C(C)C)NC(=O)[C@H](C)NC(=O)CSC[C@@H](C(=O)NCCOCCOCCOCCOCCC(N)=O)NC(=O)[C@H](Cc2ccc(O)cc2)N(C)C(=O)[C@H](Cc2cccc(C(=O)O)c2)NC(=O)[C@H](CCCNC(=N)N)NC(=O)[C@H](CCCNC(=N)N)NC(=O)[C@H]([C@@H](C)CC)NC1=O [compound 75] |
| 0.001 to 0.1 | CC[C@H](C)[C@@H]1NC(=O)[C@H](Cc2ccc(OCC(=O)O)cc2)NC(=O)[C@H](Cc2ccc(O)cc2)NC(=O)[C@H](CC(N)=O)NC(=O)[C@H](Cc2cn(CC(=O)O)c3ccccc23)NC(=O)[C@H](C(C)C)NC(=O)[C@H](Cc2cccc(Cl)c2)N(C)C(=O)[C@H](C(C)C)NC(=O)[C@H](C)NC(=O)CSC[C@@H](C(=O)NCCOCCOCCOCCOCCC(N)=O)NC(=O)[C@H](Cc2ccc(O)cc2)N(C)C(=O)[C@H](Cc2ccncc2)NC(=O)[C@H](CCCNC(=N)N)NC(=O)[C@H](CCCNC(=N)N)NC(=O)[C@H]([C@@H](C)CC)NC1=O [compound 76] |
